Assay results: publication PMC6287197, “Eukaryotic Cell Toxicity and HSA Binding of [Ru(Me4phen)(bb7)]^2+ and the Effect of Encapsulation in Cucurbit[10]uril” (Frontiers in Chemistry, 2018)
Read-outs that look alike come from different tables or passages of the source.

Legend:
[1] = system: BHK (baby hamster kidney) cell line; assay: MTT toxicity assay against BHK cells; format: cell-based
Method: (§1) BHK (baby hamster kidney); Caco-2 (heterogeneous human epithelial colorectal adenocarcinoma); and Hep-G2 (liver carcinoma). All cell lines were cultured in 75 mL culture flasks in DMEM culture media (Dulbecco's Modified Eagle's Medium, Gibco, Thermo Fisher, UK) supplemented with 10% fetal bovine serum (Gibco, Thermo Fisher, UK), 1% MEM Non-Essential Amino Acid (Sigma, UK) and 1% penicillin-streptomycin (Sigma) at 37°C in an atmosphere of 5% humidified CO2. Cells used in the study were in the logarithmic growth phase, and unless stated were grown to 70% confluence, and then trypsinized with 0.5% trypsin-EDTA (Gibco, Canada) for detachment and use in the assays. […] The cells were cultured in 96-well microtiter plates containing the respective media to a cell density of 3,000 per well at 37°C in an atmosphere of air containing 5% CO2. Cell viability was assessed after continuous exposure to various concentrations of drugs (ranging from 0.5 to 400 μM) for 24 and 48 h. Cisplatin served as a treatment evaluation standard. […] The amount of MTT reduced to formazan within the cells was quantified by measuring the absorbance at λ = 570 nm using a Fluostar Galaxy Microplate Reader. The average values presented are based on at least three independent experiments. The IC50 values were determined using GraphPad Prism 7.0 (GraphPad Software, San Diego, USA).

[2] = system: Hep-G2 (human hepatocellular carcinoma) cell line; assay: MTT toxicity assay against Hep-G2 cells; format: cell-based
Method: as §1

[3] = system: Caco-2 (human epithelial colorectal adenocarcinoma) cell line; assay: MTT toxicity assay against Caco-2 cells; format: cell-based
Method: as §1, with “h.” for “h. Cisplatin served as a treatment evaluation standard.”

[4] = biological target: T1, human serum albumin (HSA) (Homo sapiens, UniProt P02768); set-up: method as in Li et al., 2013b; settings: ref Li et al., 2013b; cited from earlier work
T1 construct: purchased Sigma-Aldrich
T1 sequence (P02768 25-609): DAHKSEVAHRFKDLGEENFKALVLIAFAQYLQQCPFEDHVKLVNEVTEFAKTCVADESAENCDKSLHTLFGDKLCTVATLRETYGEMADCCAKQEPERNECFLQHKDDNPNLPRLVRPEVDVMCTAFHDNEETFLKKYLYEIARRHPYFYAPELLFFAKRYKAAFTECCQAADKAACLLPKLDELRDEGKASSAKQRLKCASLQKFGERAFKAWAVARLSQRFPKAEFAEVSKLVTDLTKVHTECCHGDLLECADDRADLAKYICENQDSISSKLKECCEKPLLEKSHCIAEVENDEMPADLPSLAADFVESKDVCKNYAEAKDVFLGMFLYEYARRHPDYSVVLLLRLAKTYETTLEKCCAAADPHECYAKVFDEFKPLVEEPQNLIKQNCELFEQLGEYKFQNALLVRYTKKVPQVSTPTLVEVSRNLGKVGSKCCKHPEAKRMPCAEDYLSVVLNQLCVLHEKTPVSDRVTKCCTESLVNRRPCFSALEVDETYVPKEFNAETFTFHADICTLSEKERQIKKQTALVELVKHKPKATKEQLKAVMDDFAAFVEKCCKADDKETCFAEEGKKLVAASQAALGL

[5] = set-up: method as in Li et al., 2017; settings: mice, ref Li et al., 2017; cited from earlier work
[6] = biological target: T1, human serum albumin (HSA); assay: HSA binding by tryptophan fluorescence quenching; settings: for Kapp (apparent HSA binding constant) / binding number n for HSA binding: [Ru complex]/[HSA] ratio 0 to 2.4, 0.1 M sodium phosphate pH 7.4
Method: All solutions used in the protein binding studies were dissolved in a 0.1 M sodium phosphate buffer (pH = 7.4). Protein solutions (5 μM) were titrated with the ruthenium complexes from 2 mM stock solutions, from a metal complex/protein ratio of 0.0 to 8.0. […] All experiments were carried out in triplicate, with results presented as mean and standard deviation.
The static quenching via binding of the ruthenium complexes to HSA can be represented as: nRu+HSA→nRu⋯ HSA where nRu…HSA denotes the quenched ruthenium complex/HSA species. A double-logarithm equation of log10[(F0-F)/F] vs. log10[Ru] can then be used to express the equilibrium between the free and bound ruthenium(II) complex to determine the apparent binding constant (Kapp) and the binding number (n) (Krause-Heuer et al., [2012]). log [F0-F/F]=log10Kapp+nlog10[Ru]
It was not possible to determine a single apparent HSA binding constant, as a linear relationship was not observed over the entire concentration range of added ruthenium complex in the plot of log10[(F0 – F)/F] vs. log10[Ru]. However, two distinct linear sections could be found in the analysis of the double logarithm, corresponding to ruthenium complex to HSA ratios of (a) 0 to 2.4 and (b) 2.4 to 8. As previously observed (Li et al., [2013b]), the two binding ratio regions represent an initial 1:1 binding at low ruthenium complex concentration (ratios 0–2.4), and then upon addition of further ruthenium complex, a region (2.4–8) where multiple ruthenium complexes (≥ 2:1) are bound to HSA. The higher affinity 1:1 HSA binding constant Kapp and the binding numbers n for the ruthenium complexes determined at low ratios of added ruthenium complex are summarized in Table 2.

[7] = system: eukaryotic cells (BHK, Hep-G2, Caco-2); assay: Toxicity to the panel of eukaryotic cell lines (comparisons); format: cell-based
Method: as §1

[8] = set-up: method as in Sun et al., 2018; settings: ref Sun et al., 2018; cited from earlier work
[9] = system: Gram-positive and Gram-negative bacteria; settings: 2018, cited from earlier work; for MIC: Gram-positive and Gram-negative bacteria, ref Gorle et al., 2015, Sun et al.
BHK cells = assay: Confocal microscopy of cellular accumulation in BHK cells; format: cell-based, hamster
Method: The trypsinized BHK cells were seeded on sterile, poly L-lysine coated, coverslips in a 24-well plate. The ruthenium complex was applied to the cells in growth media to make the desired concentration (25 μM) and incubated at 37°C with 5% CO2 for 1 h. Following the incubation, 100 nM Mitotracker® Green FM (Invitrogen) was added for mitochondrial staining. Staining was carried out in DMEM medium under standard cultivation conditions as per the manufacturer's instructions. Following staining, the coverslips were gently rinsed with phosphate buffer solution (PBS, pH = 7.1) prior to confocal laser scanning microscopy.
The cellular accumulation of the ruthenium complex was determined using a laser scanning confocal microscope (FV3000, Olympus). Samples were viewed under 60× silicone immersion using the following excitation (λex) and emission (λem) wavelengths. Ruthenium complex (λex = 450 nm, λem = 630 nm) and Mitotracker Green FM (λex = 490 nm, λem = 516 nm) were excited using a blue argon laser (λex = 488 nm), and emissions were collected at λ = 600–650 nm for the ruthenium complex and λ = 500–550 nm for Mitotracker Green. […] The luminescence intensity of cis-α-[Ru(Me4phen)(bb7)]^2+ inside the BHK cells was quantified using the surface rendering function of Imaris 9.2.1 software, and the data analyzed for statistical difference using the Wilcoxon-test and t-test methods.

[10] = 24-h incubation, read-out: IC50 BHK 24 h
[11] = 48-h incubation, read-out: IC50 BHK 48 h
[12] = 24-h incubation, read-out: IC50 Hep-G2 24 h
[13] = 48-h incubation, read-out: IC50 Hep-G2 48 h
[14] = 24-h incubation, read-out: IC50 Caco-2 24 h
[15] = 48-h incubation, read-out: IC50 Caco-2 48 h

| Compound | IC50 [1, 10] [µM] | IC50 [1, 11] [µM] | IC50 [2, 12] [µM] | IC50 [2, 13] [µM] | IC50 [3, 14] [µM] | IC50 [3, 15] [µM] | Kapp (apparent HSA binding constant) [6] | binding number n for HSA binding [6] | log P [8] | further results |
| --- | --- | --- | --- | --- | --- | --- | --- | --- | --- | --- |
| Cc1ccnc(-c2cc(CCCCCCCCCCCCc3ccnc(-c4cc(C)ccn4)c3)ccn2)c1.[Ru+2].[Ru+2].c1cnc2c(c1)ccc1cccnc12.c1cnc2c(c1)ccc1cccnc12.c1cnc2c(c1)ccc1cccnc12.c1cnc2c(c1)ccc1cccnc12 [Rubb12, [{Ru(phen)2}2{μ-bb12}]^4+, reference compound] | 44 ± 9 | 41 ± 7 | 55 ± 12 | 15 ± 5 | 10 ± 1 | 8 ± 3 |  |  |  | Kapp (HSA binding), previously determined [4]: 470000 M⁻¹; effect of Q[10]-binding on HSA binding affinity [4]: decreased the affinity; amount of complex in serum after intravenous injection [5]: decreased very rapidly |
| Cc1cnc2c(ccc3c(C)c(C)cnc32)c1C.Cc1cnc2c(ccc3c(C)c(C)cnc32)c1C.Cc1cnc2c(ccc3c(C)c(C)cnc32)c1C.[Ru+2] [(Me4phen)3, [Ru(Me4phen)3]^2+, reference compound] | 157 ± 25 | 111 ± 23 | 253 ± 60 | 72 ± 31 | 220 ± 43 | 265 ± 13 | 0.12 ± 0.03 × 10^5 (M)^−1 | 0.81 |  |  |
| Cc1ccnc(-c2cc(CCCCCCCc3ccnc(-c4cc(C)ccn4)c3)ccn2)c1.[Ru+2].c1cnc2c(c1)ccc1cccnc12 [α-phen-7, cis-α-[Ru(phen)(bb7)]^2+] | > 400 | 250 ± 42 | 319 ± 26 | 312 ± 15 | > 400 | 219 ± 43 | 0.10 ± 0.00 × 10^5 (M)^−1 | 0.80 |  |  |
| Cc1ccnc(-c2cc(CCCCCCCCCCCCc3ccnc(-c4cc(C)ccn4)c3)ccn2)c1.[Ru+2].c1cnc2c(c1)ccc1cccnc12 [α-phen-12, cis-α-[Ru(phen)(bb12)]^2+] | 92 ± 26 | 85 ± 16 | 94 ± 13 | 19 ± 3 | 227 ± 22 | 177 ± 17 | 0.43 ± 0.17 × 10^5 (M)^−1 | 0.95 | −0.9 | fold more toxic than α-Me4phen-7 ([7]; eukaryotic cells, from IC50 values): 2–5 fold; MIC [9]: 1 to 10 µM |
| Cc1ccnc(-c2cc(CCCCCCCc3ccnc(-c4cc(C)ccn4)c3)ccn2)c1.O=[N+]([O-])c1cc2cccnc2c2ncccc12.[Ru+2] [α-NO2phen-7, cis-α-[Ru(NO2phen)(bb7)]^2+] | > 400 | > 400 | 141 ± 29 | 99 ± 29 | 121 ± 18 | 126 ± 6 | 23.5 ± 4.9 × 10^5 (M)^−1 | 1.27 | −1.58 |  |
| Cc1ccnc(-c2cc(CCCCCCCc3ccnc(-c4cc(C)ccn4)c3)ccn2)c1.Cc1cnc2c(ccc3c(C)c(C)cnc32)c1C.[Ru+2] [α-Me4phen-7, cis-α-[Ru(Me4phen)(bb7)]^2+] | > 400 | 168 ± 5 | 162 ± 14 | 142 ± 8 | > 400 | > 400 | 4.6 ± 0.90 × 10^5 (M)^−1 | 1.14 | −1.33 | fold higher HSA binding affinity on Q[10]-encapsulation ([6]; Q[10]-encapsulated vs free): 3–4 fold; fold tighter HSA binding than α-phen-12 and α-Me2phen-7 ([6]; from Kapp): approximately 10 fold; level of cellular accumulation, free vs Q[10]-encapsulated (luminescence intensity per cell) (BHK cells; BHK cells, […] μM, 1-h incubation): no difference; nuclear localization in BHK cells (BHK cells; preliminary confocal microscopy): did not localize in the nucleus; fold decrease in toxicity by Q[10]-encapsulation ([7]; based on 48-h incubation toxicity to BHK and Hep-G2 cells): 2–3 fold; fold less toxic to eukaryotic cells than α-phen-12 ([7]; from IC50 values): 2–5 fold; MIC [9]: 1 to 10 µM; fold lower antimicrobial activity to Gram-negative bacteria than Rubb12 ([9]; ref Sun et al.): ≈ 2 fold |
| cis-α-[Ru(Me2phen)(bb7)]^2+ [α-Me2phen-7] | > 400 | 250 ± 46 | 358 ± 18 | 151 ± 30 | > 400 | > 400 | 0.29 ± 0.13 × 10^5 (M)^−1 | 0.91 |  |  |
| N.N.[Cl][Pt][Cl] [Cisplatin, reference compound] | > 400 | 146 ± 8 | 314 ± 8 | 12 ± 3 |  |  |  |  |  |  |
